# Test system: Sceptre wheat
# Assay: Field wheat trial
# Format: in vivo
# Details: total N applied: nV-2 17 units, Flexi-N and Urea 59 units
# Protocol: A fertiliser and/or soil improver composition (nV-2) is prepared using a method exemplified in Example III, with a sheep wool material (uncleaned and/or containing the fat layer) being deconstructed using a eutectic melt comprising urea:choline chloride at a ratio in the range of from about 7.5:1 to about 4:1, and with the temperature for the deconstruction of wool being in a range of approximately 145-165° C. (or more specifically approximately 145-160° C.). The composition (nV-2) was also prepared at a weight to volume ratio of the wool to eutectic melt in the range of from about 1 g:1 ml to about 1 g:25 ml.
# The resultant fertiliser and/or soil improver composition (nV-2) comprises 35% (w/v) of total N (nitrogen) and has pH in the range of pH 5.5-6.5. For the field application, the composition nV-2 was mixed with water (as a carrier) in a ratio of approximately 52 L water to approximately 48 L of nV-2.
# The field wheat trial was established as a randomised complete block of 5 treatments and 4 replicates in a single bank with each plot 12 meter long by 2 meter wide.
# The effectiveness of the fertiliser and/or soil improver composition nV-2 according to the present invention on plant growth (wheat in this instance) and/or as an organic nitrogen nutrient source, is compared with a commercial inorganic fertiliser (Flexi-N, which is a commercially available fertiliser distributed by the Australian Company CSBP and contains three forms of N—urea, ammonium and nitrate, with a total N concentration of 42%), and with Urea alone (at 46% total N). […]
# At 41 and 75 days after sowing, the NDVI was recorded for each plot using a hand-held green-seeker.
# At 209 days after sowing, the trial was plot harvested for yield comparisons with grain samples collected from each plot and analysed for quality (protein, moisture, specific weight and screenings) according to industry standards.
# All data collected was statistically analysed with the proprietary agricultural field research program ARM® using an Analysis of Variance at a confidence limit of 95%.
smiles,measurement,setting,value
NC(N)=O [Urea],Average crop yield,harvest 209 days after sowing,7.848
same,Average crop yield/Unit of N,,0.133
same,Net crop yield/unit of N,,0.009

# Reference: patent US20220281779A1, “Fertiliser and/or Soil Improver Composition, Method of Preparation and Method of Use” (Veratin Pty Ltd, priority 2016, published 2022)
